One may read the EC50 as the concentration needed to bring the measured effect to its halfway point. As a reminder, the IC50 is the concentration that gives 50% inhibition.

Molecules are shown by their SMILES.

For eight compounds, EC50 and IC50 results are on record in patent US9187458B2, “Cyanoquinoline derivatives” (Tianjin Hemay Bio-Tech Co., LTD., priority 2010, dated 2015).

In one experiment the target is T1, EGFR-TK (Homo sapiens, UniProt P00533).
T1 construct: EGFR-TK: intracellular epidermal growth factor receptor phosphorylase
T1 sequence (P00533 669-1210 limits assumed): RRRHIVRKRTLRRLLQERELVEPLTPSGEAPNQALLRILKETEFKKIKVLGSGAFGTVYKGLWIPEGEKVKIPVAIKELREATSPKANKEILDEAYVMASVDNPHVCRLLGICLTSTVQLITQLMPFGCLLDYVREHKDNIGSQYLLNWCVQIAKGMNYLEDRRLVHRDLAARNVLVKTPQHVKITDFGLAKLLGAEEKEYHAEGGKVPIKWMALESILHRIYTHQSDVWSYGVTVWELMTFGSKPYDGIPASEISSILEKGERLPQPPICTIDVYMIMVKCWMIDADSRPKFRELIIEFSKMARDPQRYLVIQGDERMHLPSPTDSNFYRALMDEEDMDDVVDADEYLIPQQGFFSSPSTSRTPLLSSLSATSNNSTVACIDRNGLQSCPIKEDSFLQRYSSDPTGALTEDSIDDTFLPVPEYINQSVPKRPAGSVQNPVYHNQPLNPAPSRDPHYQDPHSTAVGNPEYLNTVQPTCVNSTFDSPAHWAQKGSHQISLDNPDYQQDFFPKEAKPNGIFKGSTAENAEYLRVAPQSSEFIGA
Nature of the experiment: Inhibition Test on EGFR-TK (ELISA, PGT substrate). Type of experiment: biochemical. To be noted: 20 min at room temperature, read-out: Inhibition Activity (EC50) on EGFR-TK phosphorylation. On the procedure:
Inhibition Test on EGFR-TK
1. 2 mg/ml of PGT was diluted with PBS to 0.2 mg/ml. The resulting solution was added into elisa plate by 50 μl per well. The plate was placed in a refrigerator at 4° C. and coated overnight.
2. The coating solution was discarded to stop coating. The plate was washed three times with PBS, and then beaten to dryness.
3. The elisa plate was placed in a refrigerator at 4° C., drained out and stood for 2h.
4. The mother liquid of aqueous solution of each compound was diluted with double distilled water to four folds, i.e. a desirable concentration. Then, the compound was diluted and added in the corresponding elisa well by 25 μl/well.
5. […] of ATP solution was diluted with double distilled water to 50 folds and then sufficiently mixed. The resulting solution was separately added in each elisa well by 25 μl per well (except for the negative control).
6. EGFR kinase was diluted with 2×TKB to 800 folds. The solution was added in elisa well with 50 μl per well. Then, the enzyme reaction began. The elisa plate was immediately placed on a micro-oscillator and shaked to react for 20 min at the room temperature.
7. 2% of SDS was added in the elisa well to stop the reaction by adding 100 μl of SDS into each well. The solution was sufficiently mixed on the micro-oscillator to sufficiently mix for about 5 min.
8. The reaction solution was sucked out. The plate was washed four times with PBST. After the plate was beaten to dryness, 0.25 μg/ml of mice anti-phosphorylation tyrosine-HRP antibody which was diluted with blocking solution (3% solution of BSA in PBST) was added in the plate by 100 μl per well. The mixture was reacted for 30 min at the room temperature.
9. The antibody reaction solution was sucked out. The plate was washed four times with PBST. After the plate was beated to dryness, TMB peroxidase substrate was added to the plate by 100 μl/well. The mixture reacted in the dark for 15 min at the room temperature.
10. 100 μl of 2N H2SO4 was added in the plate to stop the chromogenic reaction. After the bubbles were cleansed, OD values were determined in ELIASA at 450 nm.
11. Formula for calculating inhibition percentage: […]

A further experiment relates to NCI-H358 cells. The experiment can be described thus: NCI-H358 Cell Growth Inhibition Test (MTT Assay). Type of experiment: cell-based. To be noted: Homo sapiens, 72 h incubation. As for the experimental part: NCI-H358 Cell Growth Inhibition Test (MTT Assay)
Cell strains: NCI-H358 (human non-small cell lung cancer cell strains);
1. A plate (10 cm) of cells in logarithmic growth phase normally cultured was collected;
2. The culture solution was sucked out. The plate was washed with 5 ml of PBS 1-2 times;
3. PBS was sucked out. 1.5 ml of 0.25% pancreatin was added to infiltrate the cells for 1 min;
4. The culture plate was placed in an incubator. Digestion was carried out for about 5 min at 37° C.;
5. 3 ml of complete culture solution was added to the culture plate to stop the digestion. Tthe cells were carefully scoured with micropipette (1 ml) to give a uniform cell suspension. The suspension was implanted into a 96-well cell culture plate by 10000 cells/100 […] per well. The culture plate was incubated overnight under 5% CO2 at 37° C. In day 2, 100 μA of culture solution comprising a compound was added in each well, and further incubated for 72 h under 5% CO2 at 37° C.
6. The culture solution was sucked out;
7. 100 μA of serum-free culture solution containing 0.5 mg/ml MTT was added in each well, and incubated for 3 h;
8. The culture solution was carefully sucked out;
9. 100 μA of DMSO was added in each well and vibrated to dissolve;
10. OD values were determined at 490 nM.
1. Calculation of Relative Inhibition Ratio The inhibition ratio of a compound on cell growth=(PC−n)/(PC−NC)×100%
IC50: Concentration of a compound where inhibition ratio was 50%. IC50 values were fitted with Origin7.5.

The next experiment deals with BxPc-3 cells. Nature of the experiment: BxPc-3 Cell Growth Inhibition Test (MTT Assay). In kind it is cell-based. To be noted: Homo sapiens, 72 h incubation. As for the experimental part: BxPc-3 Cell Growth Inhibition Test (MTT Assay) Cell strains: BxPC-3 (human pancreatic cancer cell strains); Culture medium: 90% RPMI-1640+10% FBS; 1. A plate (10 cm) of cells in logarithmic growth phase normally cultured was collected; 2. The culture solution was sucked out. […] The plate was washed with 5 ml of PBS 1-2 times; 3. PBS was sucked out. 1.5 ml of 0.25% pancreatin was added to infiltrate the cells for 1 min; 4. The pancreatin was sucked out. The culture plate was placed in an incubator. Digestion was carried out for about 5 min at 37° C.; 5. 4.5 ml of complete culture solution was added to the culture plate to stop the digestion. The cells were carefully scoured with micropipette (1 ml) to give a uniform cell suspension. The suspension was implanted into a 96-well cell culture plate by 5000 cells/100 μl per well. The culture plate was incubated overnight under 5% CO2 at 37° C. In day 2, 100 μl of culture solution comprising a compound was added in each well, and further incubated for 72 h under 5% CO2 at 37° C. 6. The culture solution was sucked out; 7. 100 μl of serum-free culture solution containing 0.5 mg/ml MTT was added in each well, and incubated for 3 h; 8. The culture solution was carefully sucked out; 9. 100 μl of DMSO was added in each well and vibrated to dissolve; 10. OD values were determined at […]. 1. Calculation of Relative Inhibition Ratio The inhibition ratio of a compound on cell growth=(PC−n)/(PC−NC)×100% IC50: Concentration of a compound where inhibition ratio was 50%. IC50 values were fitted with Origin7.5.

As for `CN(C)C/C=C/C(=O)Nc1cc2c(Nc3ccc(OCc4ccccn4)c(Cl)c3)c(C#N)cnc2cc1OC1CCOC1` (stereo not shown) [Example 21, (E)-N-(4-(3-CHLORO-4-(PYRIDIN-2-YL-METHOXY)PHENYLAMINO)-3-CYANO-7-(TETRAHYDROFURAN-3-YL-OXY)QUINOLIN-6-YL)-4-(DIMETHYLAMINO)-BUT-2-ENAMIDE], the half-maximal effective concentration (EC50) on EGFR-TK came out at 154 nM.

`CC(C)(C)NC/C=C/C(=O)Nc1cc2c(Nc3ccc(OCc4ccccn4)c(Cl)c3)c(C#N)cnc2cc1O[C@H]1CCOC1` [Example 153, (S,E)-N-(4-(3-CHLORO-4-(PYRIDIN-2-YL-METHOXY)PHENYLAMINO)-3-CYANO-7-(TETRAHYDROFURAN-3-YL-OXY)QUINOLIN-6-YL)-4-(TERT-BUTYLAMINO)-BUT-2-ENAMIDE]: the IC50 with NCI-H358 cells amounted to 78 nM.

As for `CN(C)C/C=C/C(=O)Nc1cc2c(Nc3ccc(OCc4ccccn4)c(Cl)c3)c(C#N)cnc2cc1O[C@@H]1CCOC1` [Example 139, (R,E)-N-(4-(3-CHLORO-4-(PYRIDIN-2-YL-METHOXY)PHENYLAMINO)-3-CYANO-7-(TETRAHYDROFURAN-3-YL-OXY)QUINOLIN-6-YL)-4-(DIMETHYLAMINO)-BUT-2-ENAMIDE], the IC50 in the experiment with BxPc-3 cells turned out to be 188 nM.

Consider `CN(C)C/C=C/C(=O)Nc1cc2c(Nc3ccc(F)c(Cl)c3)c(C#N)cnc2cc1OC1CCOC1` (stereo not shown) [Example 4, (E)-N-(4-(3-CHLORO-4-FLUOROPHENYLAMINO)-3-CYANO-7-(TETRAHYDROFURAN-3-YL-OXY)QUINOLIN-6-YL)-4-(DIMETHYLAMINO)-BUT-2-ENAMIDE], for which the EC50 on EGFR-TK was 42 nM.

In the case of `CN(C)C/C=C/C(=O)Nc1cc2c(Nc3ccc(OCc4ccccn4)c(Cl)c3)c(C#N)cnc2cc1O[C@H]1CCOC1` [Example 138, (S,E)-N-(4-(3-CHLORO-4-(PYRIDIN-2-YL-METHOXY)PHENYLAMINO)-3-CYANO-7-(TETRAHYDROFURAN-3-YL-OXY)QUINOLIN-6-YL)-4-(DIMETHYLAMINO)-BUT-2-ENAMIDE], the figures for the IC50 in the experiment with NCI-H358 cells and with BxPc-3 cells were 54 nM and 337 nM, respectively. Moreover, the concentration giving a half-maximal response (EC50) at EGFR-TK was found to be 110 nM.

`CN(C)C/C=C/C(=O)Nc1cc2c(Nc3ccc(OCc4cccc(F)c4)c(Cl)c3)c(C#N)cnc2cc1OC1CCOC1` (stereo not shown) [Example 9, (E)-N-(4-(4-(3-FLUOROBENZYLOXY)-3-CHLOROPHENYLAMINO)-3-CYANO-7-(TETRAHYDROFURAN-3-YL-OXY)QUINOLIN-6-YL)-4-(DIMETHYLAMINO)-BUT-2-ENAMIDE]: the EC50 at EGFR-TK amounted to 135 nM.

Turning to `C#Cc1cccc(Nc2c(C#N)cnc3cc(OC4CCOC4)c(NC(=O)/C=C/CN(C)C)cc23)c1` (stereo not shown) [Example 5, (E)-N-(3-CYANO-4-(3-ETHYNYLPHENYLAMINO)-7-(TETRAHYDROFURAN-3-YL-OXY)QUINOLIN-6-YL)-4-(DIMETHYLAMINO)-BUT-2-ENAMIDE], the EC50 at EGFR-TK turned out to be 44 nM.

`CN(C)C/C=C/C(=O)Nc1cc2c(Nc3ccc(F)c(Cl)c3)c(C#N)cnc2cc1O[C@H]1CCOC1` [Example 142, (S,E)-N-(4-(3-CHLORO-4-FLUOROPHENYLAMINO)-3-CYANO-7-(TETRAHYDROFURAN-3-YL-OXY)QUINOLIN-6-YL)-4-(DIMETHYLAMINO)-BUT-2-ENAMIDE]: the IC50 in the experiment on BxPc-3 cells is 416 nM.
